# Laboratory results as given in patent US20230404969A1, “COMPOSITIONS AND METHOD FOR EFFECTIVE MANAGEMENT OF PERITONITIS” (priority 2022, published 2023).
# Assays:
# CD4+ T cells = test: Zymosan peritonitis chronic study: peripheral blood CD4+ T cell population (flow cytometry); type: in vivo, mouse; conditions: Withanone 2 mg/kg, day 36
# Description: (§1) Peritoneal inflammation was induced by Zymosan A (Sigma Chemical) (Masashi et al. Zymosan, but Not Lipopolysaccharide, Triggers Severe and Progressive Peritoneal Injury Accompanied by complement Activation in a Rat Peritonitis Model) was prepared freshly in sterile, 0.9% w/v saline, and 0.5 ml was injected i.p. from day 0 to Day 5. The lymphocyte population in the peripheral blood was determined with a flow cytometer. Cells were phenotyped by flow cytometry with the following primary antibodies: CD4 (FITC) and CD8 (PE). Cells were gated broadly on all live lymphocyte cells, with only debris and multiple cell clusters being excluded. Analysis of mean fluorescence intensity was done and percentage cell population was evaluated. The test drugs were administered for 30 days after the induction of peritonitis. […]
# Flow cytometry enables the characterization of cells and subcellular organelles on the basis of size and granularity and a number of different parameters defined by fluorescent probes. […] Fluorochrome labelled monoclonal antibodies directed against co-receptors CD4 and CD8 were used to quantify the lymphocyte subsets in a multiparametric flow cytometric assay. […]
# MCP-1 = test: Cytometric Bead Array of peritoneal fluid, chronic zymosan peritonitis: MCP-1; type: in vivo, mouse; conditions: 2 mg/kg, vs Zymosan control
# Description: as §1, with “evaluated.” for “evaluated. The test drugs were administered for 30 days after the induction of peritonitis.”
# (§2) The Cytometric Bead Array (Mouse Inflammation kit) was used to study cytokines in peritoneal fluid. […] Briefly, a mixture of 6 capture bead populations (50 μl) with distinct fluorescence intensities (detected in FL3) coated with antibodies specific for the above cytokines was mixed with each sample/standard (50 μl). […] Following acquisition of data by two colour cytometric analysis, the sample results were analysed using CBA software (BD Biosciences). […] Individual cytokine concentration ratios were indicated by their fluorescent intensities and was determined by interpolation from the corresponding standard curve.
# E. Coli (Gram-negative) = test: Bacterial translocation from the gut into organs: E. coli; type: in vivo; conditions: Withanone 2 mg/kg; positive/6 mice
# Description: (§3) Peritoneal inflammation was induced by Zymosan A (Sigma Chemical) (Masashi et al. Zymosan, but Not Lipopolysaccharide, Triggers Severe and Progressive Peritoneal Injury Accompanied by complement Activation in a Rat Peritonitis Model) was prepared freshly in sterile, 0.9% w/v saline, and 0.5 ml was injected i.p. from day 0 to Day 5. The lymphocyte population in the peripheral blood was determined with a flow cytometer. Cells were phenotyped by flow cytometry with the following primary antibodies: CD4 (FITC) and CD8 (PE). Cells were gated broadly on all live lymphocyte cells, with only debris and multiple cell clusters being excluded. Analysis of mean fluorescence intensity was done and percentage cell population was evaluated. The test drugs were administered for 30 days after the induction of peritonitis. On 36th day the peritoneal cavity was lavaged with 1.5 ml saline, and after a 30-s gentle manual massage, 0.5 ml exudate was retrieved, centrifuged at 3000 g for 3 min, and frozen at […] prior to cytokine and chemotactic-factor assessment.
# (§4) Intestine serves as a barrier in preventing gut bacteria and/or endotoxin from spreading to organs and tissues. It is also known that bacterial translocation occurs in critically ill or immunocompromised patients, and the physical disruption of mucosal barrier in vivo rodent models seem to be a key factor Tor translocation (Deitch et al. Effect of hemorrhagic shock on bacterial translocation, intestinal morphology, and intestinal permeability in conventional and antibiotic-decontaminated rats; Critical Care Medicine; 1990 18(5)). Bacterial translocation from the gut into the peritoneal cavity and organs was analyzed. The mesenteric lymph nodes, liver, and spleen of mice, study group of 30, were removed using sterile instruments. The organs were then homogenized in 1 ml of sterile cooked meat broth and 50 μl of organ homogenate was spread on blood agar plates to detect aerobic bacteria and Eosin Methylene blue agar plates to detect specially for E. coli. These plates were then incubated at 37° C. for 2 days. […]
# TNF-α = test: Cytometric Bead Array of peritoneal fluid, chronic zymosan peritonitis: TNF-α; type: in vivo, mouse; conditions: 2 mg/kg, vs Zymosan control
# Description: as §1, with “evaluated.” for “evaluated. The test drugs were administered for 30 days after the induction of peritonitis.”
# as §2
# IL-12p70 = test: Cytometric Bead Array of peritoneal fluid, chronic zymosan peritonitis: IL-12; type: in vivo, mouse; conditions: 2 mg/kg, vs Zymosan control
# Description: as §1, with “evaluated.” for “evaluated. The test drugs were administered for 30 days after the induction of peritonitis.”
# as §2
# IL-1β = test: Intracellular IL-1β estimation in LPS activated murine neutrophils (flow cytometry); type: cell-based; conditions: 5 μg/ml, LPS 1 μg/ml, 3 h, ↑ upregulation
# Description: Flowcytometric studies were carried out to determine the anti-inflammatory effect of active constituents of Withania somnifera extract on TNF-α and IL-1β cytokine expression in LPS activated murine neutrophils.
# TNF-α and Interleukin 1 beta (IL-1β) cytokines play a major role in the pathogenesis of septic shock induced by LPS (Lipopolysaccharide) endotoxin injection. LPS is an important triggering factor for in vivo systemic inflammatory response. LPS activates neutrophils via engagement of TLR4 (Toll-like receptor 4), resulting in the induction of a characteristic proinflammatory phenotype and prolongation of cell lifespan. In brief, neutrophils extraction was performed by taking murine blood and centrifuging it at 250 g for 20 min. Middle layer was taken and layered with histopaque and incubated for 10 min. The samples were centrifuged at 700 g, the upper layer was taken and Facs Lysing solution added for the lysis of any traces of RBC. The samples were washed with PBS (200 g) for 10 min. Neutrophils were stimulated with. LPS (1 μg/ml) and incubated with test samples for 3 h, in CO2 incubator. […] A fluorescence trigger was set on the […] parameter of the gated neutrophil populations (10,000 events). Fluorescence compensation, data analysis, and data presentation was performed using Cell Quest Pro software (Beckton—Dickinson Biosciences, CA, USA). […]
# [1] = tested on: Lactobacillus acidophilus (Gram positive); test: Bacterial translocation from the gut into organs: L. acidophilus; type: in vivo; conditions: Withanone 2 mg/kg; positive/6 mice
# Description: as §3, §4
smiles,measurement,setting,value
CC1=C(C)C(=O)O[C@@H]([C@@H](C)[C@@]2(O)CC[C@H]3[C@@H]4[C@@H]5O[C@@H]5[C@@]5(O)CC=CC(=O)[C@]5(C)[C@H]4CC[C@@]32C)C1 [Withanone],Inhibition of CD4+ compared to T cell population of Zymosan control,CD4+ T cells,46%
same,Inhibition of MCP-1,MCP-1,51%
same,"Bacterial translocation, Liver, E. coli",E. Coli (Gram-negative),1/6
same,"Bacterial translocation, Mesenteric Lymph Nodes, E. coli",E. Coli (Gram-negative),2/6
same,"Bacterial translocation, Spleen, E. coli",E. Coli (Gram-negative),1/6
same,Inhibition of TNF-α,TNF-α,58%
same,Inhibition of IL-12,IL-12p70,53%
same,Percentage IL-1β inhibition compared to LPS control,IL-1β,32%
same,"Bacterial translocation, Liver, L. acidophilus",[1],1/6
same,"Bacterial translocation, Mesenteric Lymph Nodes, L. acidophilus",[1],1/6
same,"Bacterial translocation, Spleen, L. acidophilus",[1],1/6
